Earlier results, collected in patent US12116608B2, “Extended metabolism methods for increasing and extracting metabolites from algae and microorganisms” (Synergraze Inc., priority 2022, dated 2024).

Settings: general description

BrC(Br)Br [bromoform]
solubility in water: soluble in water
